Assay results published in PMC5379148, “A phase I study of intravenous and oral rucaparib in combination with chemotherapy in patients with advanced solid tumours” (British Journal of Cancer, 2017).
Where two headings read alike, the source gives them in different places.

Key:
[1] = test system: advanced ovarian or breast cancer associated with a germline BRCA1/2 mutation; parameters: method as in Drew et al, 2016; conditions: single agent, ref Drew et al, 2016, cited from earlier work
advanced solid tumours = experiment: Investigator-assessed tumour response (RECIST version 1.1); format: in vivo, human
Description: Antitumour activity was assessed by the investigators according to Response Evaluation Criteria in Solid Tumor version 1.1 (RECIST) ([Eisenhauer et al, 2009]) through radiological tumour assessments performed every two cycles and/or at the end of treatment, whichever occurred first.

[2] = test system: patients with advanced solid tumours; experiment: Dose-limiting toxicities in cycle 1 and maximum tolerated dose; format: in vivo, human; conditions: days 1–14, with AUC5 carboplatin day 1, 21-day cycles
Description: Initially, at least three patients were treated at each dose level. If no DLT was observed, the dose was escalated for the next cohort of three patients. […] If no further DLT was observed, the next dose level was opened. […] When a dose was concluded to be above the MTD, the preceding lower dose was declared the MTD, but only if six patients had already been treated at this lower dose.
All patients who received at least one dose of study medication were evaluable for toxicity.

[3] = in vivo
Description: (§1) On cycle 1 days −10, −5, 1, and 14, plasma samples were obtained from all patients before rucaparib dosing and at 15 and 30 min, and at 1, 1.5, 2.5, 4, 6, 10, and 24 h after the start of the rucaparib administration (i.v. infusion (day −10) or oral (days −5, 1, and 14)). On cycle 1 days −10 and −5, samples were also obtained 48 h after the start of rucaparib administration. Rucaparib concentration was determined using liquid chromatography with tandem mass spectrometry.
(§2) Plasma clearance or apparent plasma clearance and steady-state volume of distribution were calculated for rucaparib. The oral bioavailability of rucaparib was calculated as the ratio of dose-normalised AUC0–t or AUCinf (data permitting) determined using oral rucaparib PK data collected on cycle 1 day −5 to that determined using the i.v. PK data collected on cycle 1 day −10. Pharmacokinetic parameters were summarised with the geometric mean and the coefficient of variation (CV). The ratio of Cmax and AUC0–24 of rucaparib administered in combination with chemotherapies to those of rucaparib alone was calculated and summarised, with mean and CV% to evaluate the effect of chemotherapies on the PK of rucaparib for both the i.v. dose (day −10) and oral dose (day −5).
(§3) The oral bioavailability of rucaparib was calculated as the ratio of dose-normalised AUC0-t or AUCinf (data permitting) determined using oral rucaparib PK data collected on cycle 1 day –5 to that determined using the intravenous PK data collected on cycle 1 day –10. The tmax was summarised with medians and ranges. The accumulation ratio after multiple oral rucaparib dosing (once daily) was assessed as the ratio of the AUC0-24 determined using PK collected on cycle 1 day 14 to the AUC0-24 after the cycle 1 day –5 lead-in dose. The ratio of the Cmax on day 14 to the Cmax on day –5 was also calculated. Additionally, the ratio of the AUC0-24 on cycle 1 day 14 to the AUCinf after the cycle 1 day –5 lead-in dose was calculated as an indication for any time-dependent change in rucaparib PK.

[4] = test system: patients with advanced solid tumours; conditions: single-agent oral rucaparib; ref Kristeleit et al, 2014; cited from earlier work
clinical = conditions: human, in vivo; for half-life: t1/2
Description: as §1, §2, §3

[5] = test system: patients with advanced solid tumours
Description: This study was an open-label, multicentre, dose-escalating phase I study of rucaparib administered in combination with one of four different standard chemotherapeutic regimens (NCT01009190). […] The primary objective was to assess safety and tolerability and estimate the maximum tolerated dose (MTD) and/or select the recommended phase II dose of rucaparib in combination with chemotherapy. Secondary objectives were to characterise the pharmacokinetics (PK) and assess the antitumour activity of rucaparib when combined with chemotherapy.
Safety assessments included collection of adverse events (AEs) and serious AEs (defined by National Cancer Institute Common Terminology Criteria for Adverse Events version 3.0; [Pedersen et al, 2013]), as well as vital signs, physical examination, 12-lead electrocardiogram, laboratory assessments, and verification of concurrent medications. Safety variables and demographic data were presented descriptively. The safety analysis set included all enrolled patients who started treatment.

[6] = investigator-assessed, RECIST 1.1, All patients (N=85), all arms

Structure (SMILES): CNCc1ccc(-c2[nH]c3cc(F)cc4c3c2CCNC4=O)cc1 [rucaparib]
- response rate ([1]; continuous oral dosing): 18%
- response rate ([1]; intermittent intravenous (i.v.) dosing): 2%
- disease control rate (CR, PR, or SD for ⩾12 weeks) (advanced solid tumours; across all cohorts, among patients with available data (77 of 85)): 68.8%
- partial responses that were confirmed (advanced solid tumours; across all cohorts, of 9 patients with PR): 7 patients
- Best response: Complete response (advanced solid tumours; [6]): 1 (1.2) n (%)
- Best response: Partial response (advanced solid tumours; [6]): 9 (10.6) n (%)
- Best response: Progressive disease (advanced solid tumours; [6]): 24 (28.2) n (%)
- Best response: Stable disease (advanced solid tumours; [6]): 43 (50.6) n (%)
- MTD of oral rucaparib in the combination [2]: 240 mg once daily (q.d.)
- change in t1/2 at steady state compared with a single dose ([3]; human): no change
- Ratio of rucaparib AUC0–24, day 1/day −10 ([3]; human, iv, 24 mg): 1.02 (15)
- Ratio of rucaparib Cmax, day 1/day −10 ([3]; human, iv, 24 mg): 1.03 (16)
- average increase of steady-state AUC0–24 compared with a single dose ([3]; human, po): 61%
- CL/F ([3]; human, po, 12 mg): 53.4 (39.7) L h^–1
- CL/F ([3]; human, po, 36 mg): 32.7 (41.9) L h^–1
- CL/F ([3]; human, po, 48 mg): 52.1 (150) L h^–1
- CL/F ([3]; human, po, 72 mg): 65.9 (49.4) L h^–1
- AR, accumulation ratio [AUC0-24, Day 14/AUC0-24, Day -5] ([3]; human, po, 80 mg): 1.19 (-)
- ARcm, accumulation ratio of Cmax on day 14 to Cmax on day –5 ([3]; human, po, 80 mg): 1.50 (-)
- AUC ratio [time-dependent linearity] ([3]; human, po, 80 mg): 0.655 (-)
- AR, accumulation ratio [AUC0-24, Day 14/AUC0-24, Day -5] ([3]; human, po, 120 mg): 1.49 (104)
- ARcm, accumulation ratio of Cmax on day 14 to Cmax on day –5 ([3]; human, po, 120 mg): 1.41 (99.8)
- AUC ratio [time-dependent linearity] ([3]; human, po, 120 mg): 1.14 (101)
- AR, accumulation ratio [AUC0-24, Day 14/AUC0-24, Day -5] ([3]; human, po, 180 mg): 1.36 (8.48)
- ARcm, accumulation ratio of Cmax on day 14 to Cmax on day –5 ([3]; human, po, 180 mg): 1.11 (31.1)
- AUC ratio [time-dependent linearity] ([3]; human, po, 180 mg): 0.785 (13.3)
- CL/F ([3]; human, po, 180 mg): 21.4 (68.6) L h^–1
- AR, accumulation ratio [AUC0-24, Day 14/AUC0-24, Day -5] ([3]; human, po, 240 mg): 1.64 (28.2)
- ARcm, accumulation ratio of Cmax on day 14 to Cmax on day –5 ([3]; human, po, 240 mg): 1.30 (29.7)
- AUC ratio [time-dependent linearity] ([3]; human, po, 240 mg): 1.01 (31.6)
- AR, accumulation ratio [AUC0-24, Day 14/AUC0-24, Day -5] ([3]; human, po, 360 mg): 1.7 (46.3)
- ARcm, accumulation ratio of Cmax on day 14 to Cmax on day –5 ([3]; human, po, 360 mg): 1.29 (46.1)
- AUC ratio [time-dependent linearity] ([3]; human, po, 360 mg): 1.06 (53.1)
- dose dependence of exposure [3]: increased approximately dose proportionally
- effect of carboplatin coadministration on rucaparib oral PK ([3]; po): not affected
- recommended phase II dose [4]: 600 mg twice daily
- clearance (clinical; iv, 12 mg): 270 mL/min
- half-life (clinical; iv, 12 mg): 1120 min
- clearance (clinical; iv, 18 mg): 307 mL/min
- half-life (clinical; iv, 18 mg): 982 min
- clearance (clinical; iv, 24 mg): 233 mL/min
- half-life (clinical; iv, 24 mg): 1240 min
- clearance (clinical; iv, 27 mg): 237 mL/min
- half-life (clinical; iv, 27 mg): 1010 min
- clearance (clinical; iv, 40 mg): 232 mL/min
- half-life (clinical; iv, 40 mg): 712 min
- half-life (clinical; po, 12 mg): 1120 min
- half-life (clinical; po, 36 mg): 1080 min
- half-life (clinical; po, 48 mg): 1220 min
- half-life (clinical; po, 72 mg): 1510 min
- half-life (clinical; po, 80 mg): 1210 min
- half-life (clinical; po, 120 mg): 796 min
- half-life (clinical; po, 180 mg): 1150 min
- half-life (clinical; po, 240 mg): 1060 min
- half-life (clinical; po, 360 mg): 1100 min
- half-life (clinical): ~1020 min
- Patients who died of disease progression while on study ([5]; across treatment arms, assessed as unrelated to study drug): 7.1%
- Anaemia ([5]; human, in vivo): 31 (36.5) n (%)
- Asthenia ([5]; human, in vivo): 3 (3.5) n (%)
- Constipation ([5]; human, in vivo): 22 (25.9) n (%)
- Decreased appetite ([5]; human, in vivo): 17 (20.0) n (%)
- Diarrhoea ([5]; human, in vivo): 17 (20.0) n (%)
- Discontinued treatment with AE as the primary reason ([5]; human, in vivo): 18.4%
- Fatigue ([5]; human, in vivo): 45 (52.9) n (%)
- Grade ⩾3 AEs, patients ([5]; human, in vivo): 75.3%
- Grade ⩾3 anaemia, patients ([5]; human, in vivo): 11.8%
- Grade ⩾3 dyspnoea, patients ([5]; human, in vivo): 5.9%
- Grade ⩾3 fatigue, patients ([5]; human, in vivo): 12.9%
- Grade ⩾3 nausea, patients ([5]; human, in vivo): 7.1%
- Grade ⩾3 neutropenia, patients ([5]; human, in vivo): 27.1%
- Grade ⩾3 thrombocytopenia, patients ([5]; human, in vivo): 18.8%
- Grade ⩾3 vomiting, patients ([5]; human, in vivo): 5.9%
- Grade ⩾3 γ-glutamyltransferase increased, patients ([5]; human, in vivo): 5.9%
- Lethargy ([5]; human, in vivo): 15 (17.6) n (%)
- Leukopenia ([5]; human, in vivo): 7 (8.2) n (%)
- Lymphopenia ([5]; human, in vivo): 6 (7.1) n (%)
- Myalgia ([5]; human, in vivo): 7 (8.2) n (%)
- Nausea ([5]; human, in vivo): 48 (56.5) n (%)
- Neuropathy peripheral ([5]; human, in vivo): 10 (11.8) n (%)
- Neutropenia ([5]; human, in vivo): 32 (37.6) n (%)
- Patients who discontinued treatment because of AEs ([5]; human, in vivo): 25.9%
- Patients who discontinued treatment because of neutropenia ([5]; human, in vivo): 3.5%
- Patients who discontinued treatment because of platinum hypersensitivity ([5]; human, in vivo): 2.4%
- Patients who discontinued treatment because of thrombocytopenia ([5]; human, in vivo): 2.4%
- Stomatitis ([5]; human, in vivo): 14 (16.5) n (%)
- Thrombocytopenia ([5]; human, in vivo): 27 (31.8) n (%)
- Vomiting ([5]; human, in vivo): 28 (32.9) n (%)
- ≥1 treatment-related adverse event ([5]; human, in vivo): 80 (94.1) n (%)
- Alopecia ([5]; treatment-related, any grade, All patients (N = 85), all arms): 15 (17.6) n (%)
